Results taken from ChEMBL document CHEMBL5465560, “Selectivity Literature for EUbOPEN Chemogenomic Library” (2024).
One block for each compound: values may come before it.

Legend:
[1] = target: Histone-lysine N-methyltransferase SETD2 (Homo sapiens) (UniProt Q9BYW2); assay: Selectivity interaction (Methyltransferase screen (radiometric assays, panel of 8 PRMTs, 21 protein lysine methyltransferases, 3 DNA methyltransferases, and one RNA methyltransferase)) EUB0000271b SETD2
[2] = target: Proto-oncogene tyrosine-protein kinase Src (Homo sapiens, UniProt P12931); assay: Selectivity interaction (Kinase panel (DSF assay)) EUB0001559a SRC
Sequence of Proto-oncogene tyrosine-protein kinase Src (P12931 2-536 limits assumed): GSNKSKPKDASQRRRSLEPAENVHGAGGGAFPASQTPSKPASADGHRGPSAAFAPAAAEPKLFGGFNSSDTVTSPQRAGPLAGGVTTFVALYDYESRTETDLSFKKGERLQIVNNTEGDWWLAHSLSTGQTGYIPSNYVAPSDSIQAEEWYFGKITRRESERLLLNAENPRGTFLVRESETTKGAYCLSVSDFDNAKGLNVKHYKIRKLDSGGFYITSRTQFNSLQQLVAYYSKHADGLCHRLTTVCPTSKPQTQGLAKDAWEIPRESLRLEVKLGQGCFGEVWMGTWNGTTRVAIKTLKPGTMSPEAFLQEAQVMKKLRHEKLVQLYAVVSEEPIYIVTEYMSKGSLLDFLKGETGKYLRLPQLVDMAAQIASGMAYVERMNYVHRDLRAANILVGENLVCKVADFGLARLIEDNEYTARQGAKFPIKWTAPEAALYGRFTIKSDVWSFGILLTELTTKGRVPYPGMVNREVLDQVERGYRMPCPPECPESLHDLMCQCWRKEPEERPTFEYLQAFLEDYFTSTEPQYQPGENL

[3] = target: MAP/microtubule affinity-regulating kinase 3 (Homo sapiens) (UniProt P27448); assay: Selectivity interaction (Kinase panel (literature)) EUB0001199aCl MARK3; conditions: at 1 µM
Aurora kinase B = Aurora kinase B (Homo sapiens, UniProt Q96GD4); assay: Selectivity interaction (KinomeScan (DiscoverX)) EUB0000607a AURKB; conditions: at 10 µM
Sequence of Aurora kinase B (Q96GD4 whole entry): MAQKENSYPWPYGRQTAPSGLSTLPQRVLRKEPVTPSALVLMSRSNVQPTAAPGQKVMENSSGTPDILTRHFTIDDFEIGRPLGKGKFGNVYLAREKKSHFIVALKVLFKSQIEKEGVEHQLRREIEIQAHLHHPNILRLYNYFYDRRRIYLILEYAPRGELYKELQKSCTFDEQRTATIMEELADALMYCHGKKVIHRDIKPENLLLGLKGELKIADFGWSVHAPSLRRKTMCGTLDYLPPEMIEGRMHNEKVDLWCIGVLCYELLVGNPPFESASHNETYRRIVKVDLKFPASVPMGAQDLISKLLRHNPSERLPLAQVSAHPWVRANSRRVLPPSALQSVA

[4] = target: Tyrosine-protein kinase Srms (Homo sapiens) (UniProt Q9H3Y6); assay: Selectivity interaction (KinomeScan (DiscoverX)) EUB0000607a SRMS; conditions: at 10 µM
Sequence of Tyrosine-protein kinase Srms (Homo sapiens) (Q9H3Y6 whole entry): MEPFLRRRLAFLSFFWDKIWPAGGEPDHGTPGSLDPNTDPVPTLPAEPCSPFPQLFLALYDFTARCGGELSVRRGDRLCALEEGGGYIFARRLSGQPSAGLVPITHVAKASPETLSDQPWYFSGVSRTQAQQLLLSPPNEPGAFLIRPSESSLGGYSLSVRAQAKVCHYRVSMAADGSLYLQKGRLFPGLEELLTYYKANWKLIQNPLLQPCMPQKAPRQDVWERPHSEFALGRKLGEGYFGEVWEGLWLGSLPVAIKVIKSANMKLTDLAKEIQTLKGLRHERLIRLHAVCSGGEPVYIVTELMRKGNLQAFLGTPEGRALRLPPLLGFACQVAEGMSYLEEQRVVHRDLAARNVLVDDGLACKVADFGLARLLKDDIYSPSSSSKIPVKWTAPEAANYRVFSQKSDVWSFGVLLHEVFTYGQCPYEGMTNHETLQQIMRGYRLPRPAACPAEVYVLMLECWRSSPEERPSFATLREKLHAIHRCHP

[5] = target: T1, Serine/threonine-protein kinase LATS1 (Homo sapiens) (UniProt O95835); assay: Selectivity interaction (ActivX KiNativ screen (ex vivo kinase selectivity in human PBMCs)) EUB0001619a LATS1; type: cell-based; conditions: PBMC, at 1 µM
T1 sequence (whole entry): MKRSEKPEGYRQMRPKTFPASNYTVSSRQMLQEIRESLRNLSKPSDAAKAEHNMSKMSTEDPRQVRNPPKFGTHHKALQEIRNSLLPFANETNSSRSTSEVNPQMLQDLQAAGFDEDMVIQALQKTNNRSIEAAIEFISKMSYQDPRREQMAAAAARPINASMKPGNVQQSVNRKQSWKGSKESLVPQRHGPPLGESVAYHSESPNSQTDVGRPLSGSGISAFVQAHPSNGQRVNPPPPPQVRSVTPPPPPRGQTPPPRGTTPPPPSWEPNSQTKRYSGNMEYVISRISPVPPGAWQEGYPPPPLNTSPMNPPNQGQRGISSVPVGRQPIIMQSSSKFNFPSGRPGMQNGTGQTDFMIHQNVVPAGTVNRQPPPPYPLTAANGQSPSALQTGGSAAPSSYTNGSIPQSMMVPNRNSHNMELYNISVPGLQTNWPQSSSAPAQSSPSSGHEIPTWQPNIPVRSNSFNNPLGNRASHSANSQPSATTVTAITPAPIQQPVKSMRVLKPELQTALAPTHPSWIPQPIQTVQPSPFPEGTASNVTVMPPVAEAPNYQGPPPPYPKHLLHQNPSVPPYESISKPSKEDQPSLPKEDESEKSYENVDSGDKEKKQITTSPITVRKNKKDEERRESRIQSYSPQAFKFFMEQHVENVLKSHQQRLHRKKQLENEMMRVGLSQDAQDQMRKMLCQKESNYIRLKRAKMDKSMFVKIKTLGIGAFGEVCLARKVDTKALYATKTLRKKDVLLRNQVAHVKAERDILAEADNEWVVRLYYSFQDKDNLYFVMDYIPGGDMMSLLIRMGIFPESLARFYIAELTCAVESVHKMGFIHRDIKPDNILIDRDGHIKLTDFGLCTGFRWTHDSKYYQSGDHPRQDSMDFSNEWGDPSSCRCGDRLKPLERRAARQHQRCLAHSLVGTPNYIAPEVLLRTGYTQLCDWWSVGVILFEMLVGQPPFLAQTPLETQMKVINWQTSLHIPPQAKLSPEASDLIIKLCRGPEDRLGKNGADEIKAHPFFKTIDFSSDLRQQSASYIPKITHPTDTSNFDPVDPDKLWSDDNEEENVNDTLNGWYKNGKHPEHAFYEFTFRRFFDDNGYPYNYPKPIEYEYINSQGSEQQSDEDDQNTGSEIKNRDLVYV

[6] = target: T2, Ephrin type-B receptor 6 (Homo sapiens) (UniProt O15197); assay: Selectivity interaction (KinomeScan (DiscoverX)) EUB0000595a EPHB6; conditions: at 10 µM
T2 sequence (whole entry): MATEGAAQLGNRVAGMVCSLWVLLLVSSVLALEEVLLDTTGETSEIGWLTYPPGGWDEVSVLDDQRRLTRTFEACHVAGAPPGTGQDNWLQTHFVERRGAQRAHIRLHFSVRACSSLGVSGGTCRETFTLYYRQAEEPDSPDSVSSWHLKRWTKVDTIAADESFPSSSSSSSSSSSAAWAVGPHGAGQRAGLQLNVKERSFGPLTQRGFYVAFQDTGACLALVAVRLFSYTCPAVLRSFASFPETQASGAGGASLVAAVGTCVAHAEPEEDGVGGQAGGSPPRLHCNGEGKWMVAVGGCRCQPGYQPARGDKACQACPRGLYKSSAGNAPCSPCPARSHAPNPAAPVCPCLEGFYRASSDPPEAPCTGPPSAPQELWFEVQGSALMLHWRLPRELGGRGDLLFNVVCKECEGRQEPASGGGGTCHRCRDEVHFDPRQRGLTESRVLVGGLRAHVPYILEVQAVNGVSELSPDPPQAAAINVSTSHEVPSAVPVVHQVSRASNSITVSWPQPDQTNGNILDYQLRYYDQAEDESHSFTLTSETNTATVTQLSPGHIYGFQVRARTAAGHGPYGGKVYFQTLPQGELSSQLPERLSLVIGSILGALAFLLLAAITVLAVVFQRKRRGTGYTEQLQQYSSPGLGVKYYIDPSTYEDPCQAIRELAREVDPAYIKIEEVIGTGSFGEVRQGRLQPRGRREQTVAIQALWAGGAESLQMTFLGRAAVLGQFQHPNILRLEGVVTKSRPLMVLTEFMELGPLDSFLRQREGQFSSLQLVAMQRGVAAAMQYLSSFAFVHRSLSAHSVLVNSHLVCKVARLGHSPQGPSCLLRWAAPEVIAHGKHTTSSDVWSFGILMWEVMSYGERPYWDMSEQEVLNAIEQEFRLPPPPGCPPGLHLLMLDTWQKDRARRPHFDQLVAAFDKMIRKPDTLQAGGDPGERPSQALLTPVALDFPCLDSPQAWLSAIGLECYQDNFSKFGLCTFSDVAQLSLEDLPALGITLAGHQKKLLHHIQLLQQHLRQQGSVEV

[7] = target: Mitogen-activated protein kinase kinase kinase 9 (Homo sapiens) (UniProt P80192); assay: Selectivity interaction (KinomeScan (DiscoverX)) EUB0000092b MAP3K9; conditions: at 10 µM
Sequence of Mitogen-activated protein kinase kinase kinase 9 (Homo sapiens) (P80192 whole entry, looked up): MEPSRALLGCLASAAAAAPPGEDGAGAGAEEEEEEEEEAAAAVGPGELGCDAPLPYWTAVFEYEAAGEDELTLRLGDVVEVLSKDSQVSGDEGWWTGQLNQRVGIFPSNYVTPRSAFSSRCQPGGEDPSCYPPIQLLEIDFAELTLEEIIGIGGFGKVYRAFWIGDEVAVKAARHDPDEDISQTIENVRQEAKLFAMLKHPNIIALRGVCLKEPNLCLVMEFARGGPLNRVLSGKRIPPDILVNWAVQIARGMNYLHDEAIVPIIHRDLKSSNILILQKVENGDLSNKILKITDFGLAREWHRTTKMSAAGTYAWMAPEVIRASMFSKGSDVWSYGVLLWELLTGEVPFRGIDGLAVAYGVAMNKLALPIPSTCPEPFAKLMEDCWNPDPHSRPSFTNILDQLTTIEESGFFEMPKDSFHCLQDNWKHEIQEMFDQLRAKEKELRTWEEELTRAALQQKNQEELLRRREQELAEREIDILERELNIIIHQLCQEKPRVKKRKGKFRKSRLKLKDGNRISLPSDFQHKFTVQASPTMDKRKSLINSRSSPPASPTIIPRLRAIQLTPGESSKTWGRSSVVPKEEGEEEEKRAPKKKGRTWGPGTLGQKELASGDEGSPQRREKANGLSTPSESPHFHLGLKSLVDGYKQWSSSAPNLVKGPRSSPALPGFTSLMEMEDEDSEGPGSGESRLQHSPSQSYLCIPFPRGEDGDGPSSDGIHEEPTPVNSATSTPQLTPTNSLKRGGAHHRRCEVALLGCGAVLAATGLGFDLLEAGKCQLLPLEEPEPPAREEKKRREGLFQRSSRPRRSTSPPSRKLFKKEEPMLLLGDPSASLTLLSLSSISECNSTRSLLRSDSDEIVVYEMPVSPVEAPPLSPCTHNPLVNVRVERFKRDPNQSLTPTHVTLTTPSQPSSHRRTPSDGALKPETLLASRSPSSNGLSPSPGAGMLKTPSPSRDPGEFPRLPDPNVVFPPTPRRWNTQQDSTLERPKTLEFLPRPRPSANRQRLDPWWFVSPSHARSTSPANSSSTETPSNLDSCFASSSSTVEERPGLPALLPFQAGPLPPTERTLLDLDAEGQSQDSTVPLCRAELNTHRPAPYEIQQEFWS

Sequence of Histone-lysine N-methyltransferase SETD2 (Homo sapiens) (Q9BYW2 whole entry): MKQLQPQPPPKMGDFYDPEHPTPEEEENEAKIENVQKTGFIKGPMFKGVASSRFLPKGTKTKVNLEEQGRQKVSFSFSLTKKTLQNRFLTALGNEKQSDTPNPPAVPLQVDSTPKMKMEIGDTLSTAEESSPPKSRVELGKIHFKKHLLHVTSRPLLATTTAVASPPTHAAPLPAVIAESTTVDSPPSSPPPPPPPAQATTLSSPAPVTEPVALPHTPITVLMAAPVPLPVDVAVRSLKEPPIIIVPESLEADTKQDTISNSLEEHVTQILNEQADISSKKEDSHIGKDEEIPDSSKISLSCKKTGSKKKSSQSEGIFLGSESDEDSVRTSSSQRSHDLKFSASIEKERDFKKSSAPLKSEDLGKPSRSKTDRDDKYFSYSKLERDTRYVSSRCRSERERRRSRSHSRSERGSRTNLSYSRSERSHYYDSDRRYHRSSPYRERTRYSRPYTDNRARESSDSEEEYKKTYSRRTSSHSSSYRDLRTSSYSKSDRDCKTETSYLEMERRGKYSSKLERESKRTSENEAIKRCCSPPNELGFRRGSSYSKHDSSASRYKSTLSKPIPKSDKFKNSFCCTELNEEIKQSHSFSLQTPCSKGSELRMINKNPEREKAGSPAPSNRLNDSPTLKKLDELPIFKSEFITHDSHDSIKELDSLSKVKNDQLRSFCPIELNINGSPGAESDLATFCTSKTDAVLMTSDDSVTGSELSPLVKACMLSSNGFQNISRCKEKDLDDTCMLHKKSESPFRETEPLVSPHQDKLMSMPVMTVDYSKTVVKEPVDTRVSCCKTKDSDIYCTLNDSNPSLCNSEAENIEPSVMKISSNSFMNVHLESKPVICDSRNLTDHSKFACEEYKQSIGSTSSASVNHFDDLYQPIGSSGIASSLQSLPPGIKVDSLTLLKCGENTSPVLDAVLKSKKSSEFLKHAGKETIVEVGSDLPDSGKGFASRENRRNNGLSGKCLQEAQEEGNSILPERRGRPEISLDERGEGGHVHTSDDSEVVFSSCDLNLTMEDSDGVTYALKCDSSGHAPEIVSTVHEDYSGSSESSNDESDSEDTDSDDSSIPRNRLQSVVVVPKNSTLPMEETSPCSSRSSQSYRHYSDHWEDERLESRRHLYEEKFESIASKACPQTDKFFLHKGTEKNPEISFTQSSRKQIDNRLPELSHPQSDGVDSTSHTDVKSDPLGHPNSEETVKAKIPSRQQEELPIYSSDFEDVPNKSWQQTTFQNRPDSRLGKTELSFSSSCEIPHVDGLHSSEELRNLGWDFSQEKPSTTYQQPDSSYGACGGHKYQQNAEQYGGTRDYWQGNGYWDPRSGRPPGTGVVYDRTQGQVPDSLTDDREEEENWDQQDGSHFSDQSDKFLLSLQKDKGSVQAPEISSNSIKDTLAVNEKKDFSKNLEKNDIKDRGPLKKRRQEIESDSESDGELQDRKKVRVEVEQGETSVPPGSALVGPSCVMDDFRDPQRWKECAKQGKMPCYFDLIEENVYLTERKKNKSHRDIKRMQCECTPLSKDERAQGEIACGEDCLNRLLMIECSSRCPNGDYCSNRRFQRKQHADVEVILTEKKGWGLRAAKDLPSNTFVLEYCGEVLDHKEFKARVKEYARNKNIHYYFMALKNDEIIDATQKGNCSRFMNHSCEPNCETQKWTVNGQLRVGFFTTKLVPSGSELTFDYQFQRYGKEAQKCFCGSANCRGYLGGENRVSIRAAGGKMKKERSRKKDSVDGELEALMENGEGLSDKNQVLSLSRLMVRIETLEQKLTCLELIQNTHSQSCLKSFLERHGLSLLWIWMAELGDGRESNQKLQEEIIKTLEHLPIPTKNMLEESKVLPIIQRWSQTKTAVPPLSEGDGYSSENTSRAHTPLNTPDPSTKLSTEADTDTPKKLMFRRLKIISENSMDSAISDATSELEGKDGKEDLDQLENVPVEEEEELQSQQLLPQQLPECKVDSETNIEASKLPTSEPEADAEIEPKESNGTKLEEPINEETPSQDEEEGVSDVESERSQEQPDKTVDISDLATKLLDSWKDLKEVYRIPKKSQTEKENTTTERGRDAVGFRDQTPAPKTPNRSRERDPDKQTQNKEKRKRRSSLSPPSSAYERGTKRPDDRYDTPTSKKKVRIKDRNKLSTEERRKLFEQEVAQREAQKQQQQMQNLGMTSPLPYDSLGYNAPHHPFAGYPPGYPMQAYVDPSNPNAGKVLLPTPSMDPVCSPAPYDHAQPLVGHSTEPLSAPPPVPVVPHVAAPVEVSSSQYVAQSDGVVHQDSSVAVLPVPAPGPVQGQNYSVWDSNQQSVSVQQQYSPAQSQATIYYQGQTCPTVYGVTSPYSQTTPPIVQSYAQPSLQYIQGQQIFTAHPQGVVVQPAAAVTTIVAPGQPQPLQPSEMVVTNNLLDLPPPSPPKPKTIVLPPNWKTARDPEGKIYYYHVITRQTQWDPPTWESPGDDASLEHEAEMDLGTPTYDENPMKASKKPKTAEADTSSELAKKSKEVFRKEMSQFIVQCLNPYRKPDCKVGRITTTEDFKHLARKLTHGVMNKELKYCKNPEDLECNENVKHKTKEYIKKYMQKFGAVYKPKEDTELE

SMILES: Cc1cc(C)cc([C@@H]2c3cc(C)ccc3NC(=O)CN2C(=O)c2ccc(Br)s2)c1
- % of activity ([1]; at 1 µM): 104%
- % of activity ([1]; at 10 µM): 101%

- dTM [2]: -0.3 K
SMILES: CN(C(=O)c1cnn2cccnc12)c1cc2c(cc1N1CCOCC1)C(=O)N(C[C@@H](F)C(C)(C)O)C2

- % of inhibition [3]: -2%
SMILES: CN1Cc2nccc(-c3cn(C)nc3-c3ccc(F)cc3)c2C1=O

SMILES: CNC(=O)Nc1ccc(-c2nc(N3CC4CCC(C3)O4)c3cnn(C4CCC5(CC4)OCCO5)c3n2)cc1
- % of control (Aurora kinase B): 92%
- % of control [4]: 97%

SMILES: N#Cc1cccc(-c2c[nH]c3ncnc(N4CCOCC4)c23)c1
- % of inhibition [5]: 5%

SMILES: COCC(=O)NC/C=C/c1ccc2ncnc(Nc3ccc(Oc4ccc(C)nc4)c(C)c3)c2c1 [CP-724714]
- % of control [6]: 74%

SMILES: CCC(=O)N1CCN(c2ccc(-n3c(=O)ccc4cnc5ccc(-c6cnc7ccccc7c6)cc5c43)cc2C(F)(F)F)CC1
- % of control [7]: 84%
